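Protocol summary: plate cells (96-well), add compound at 5 concentrations, incubate 48 h, interpolate endpoints linearly. At the GI50, growth is halved. TGI marks complete inhibition of growth.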
Experiments:
Assay in all cases: NCI tumour cell line growth inhibition, 48 h
XF 498 CNS = test system: XF 498 CNS
DMS 273 small cell lung = test system: DMS 273 small cell lung
LXFL 529 NSCLC = test system: LXFL 529 NSCLC
NCI/ADR-RES ovarian = test system: NCI/ADR-RES ovarian
MDA-N = test system: MDA-N
T-47D breast = test system: T-47D breast
HOP-18 NSCLC = test system: HOP-18 NSCLC
MCF7 breast = test system: MCF7 breast

Row | Structure (SMILES) | TGI (XF 498 CNS) | TGI (DMS 273 small cell lung) | TGI (LXFL 529 NSCLC) | TGI (NCI/ADR-RES ovarian) | also measured
1 | O=C(Cl)c1cc([N+](=O)[O-])cc([N+](=O)[O-])c1 | > 100 µM | > 100 µM | > 100 µM |  | 
2 | CN(C)CCCN1c2ccc3ccccc3c2Sc2cccc(Cl)c21 |  |  |  | 23.4 µM | TGI (MDA-N): 5.51 µM; TGI (T-47D breast): 7.17 µM
3 | CC(C)OP(=O)(OC(C)C)c1ncn(-c2ccc([N+](=O)[O-])cc2)n1 | > 100 µM | > 100 µM | > 100 µM |  | 
4 | COc1nc(NC2OCC(OC(C)=O)C(OC(C)=O)C2OC(C)=O)c(N=C(C)C(C)=O)c(=O)n1C (centres undefined) | > 100 µM | > 100 µM |  |  | TGI (HOP-18 NSCLC): > 100 µM
5 | Nc1cc(N)c2nc(-c3ccccc3)c(Sc3ccc(F)cc3)nc2c1 |  |  |  | 34.7 µM | GI50 (NCI/ADR-RES ovarian): 16.6 µM; GI50 (MCF7 breast): 20 µM; TGI (MCF7 breast): 62.5 µM
6 | COc1cccc(C(=O)C(O)c2cccc(OC)c2OC)c1OC (centres undefined) |  |  |  | > 100 µM | TGI (MDA-N): > 100 µM; TGI (MCF7 breast): > 100 µM; TGI (T-47D breast): > 100 µM
7 | O=C(CCc1nnc2s/c(=C\c3ccc(Cl)cc3Cl)c(=O)n12)Nc1cc(Cl)c(Cl)cc1Cl |  | > 100 µM | > 100 µM |  | GI50 (HOP-18 NSCLC): > 100 µM; TGI (HOP-18 NSCLC): > 100 µM; GI50 (DMS 273 small cell lung): > 100 µM; GI50 (LXFL 529 NSCLC): > 100 µM
8 | CN1C(=N\S(=O)(=O)c2ccc(Cl)cc2)/C(=N/N=P(c2ccccc2)(c2ccccc2)c2ccccc2)c2ccccc21 | > 100 µM | > 100 µM | > 100 µM |  | 

— PubChem BioAssay (NCI)
